Measured values published in publication PMC5775280, “Functional Characterization and Signaling Systems of Corazonin and Red Pigment Concentrating Hormone in the Green Shore Crab, Carcinus maenas” (Frontiers in Neuroscience, 2018).
Peptide text beside a SMILES is read from it.

How the values were obtained:
[1] = tested on: red and black epidermal chromatophores, dactyl of the 5th walking leg; assay: Chromatophore pigment migration bioassay in vivo; parameters: species or system Carcinus maenas; details: injection after 40 min dispersion with 5 pmol PDH, 0.1–100 pmol/crab for RPCH or AKH, 100 pmol/crab for CRZ or ACP, scored 5 and 20 min after injection
Procedure: Pigmentary effector activity of […], Locusta migratoria AKH-I, and ACP were measured in vivo, using small (15-20 mm carapace width) C. maenas. Crabs were firstly adapted to a white background, light intensity 300 lx for 1 h. Pigment dispersion of red and black chromatophores in the […] of the 5th walking leg were microscopically observed and indices of dispersion scored according to Hogben and Slome ([1931]). Red and black chromatophores were firstly fully dispersed by injection of 5 pmol C. maenas pigment dispersing hormone ([…]) in 10 μl saline into the hypobranchial sinus, using hand-drawn glass microcapillaries. Chromatophore dispersion indices were scored at 0, 20, 40 min. Peptides were then injected and chromatophores subsequently scored after 5 and 20 min.

[2] = biological target: T1, C. maenas CRZR (corazonin receptor) (Carcinus maenas, UniProt A0A2L0WQE5); assay: Aequorin luminescence Ca2+ mobilization in CHO-K1-Aeq cells transiently expressing CRZR; format: cell-based
T1 sequence (A0A2L0WQE5 1-617): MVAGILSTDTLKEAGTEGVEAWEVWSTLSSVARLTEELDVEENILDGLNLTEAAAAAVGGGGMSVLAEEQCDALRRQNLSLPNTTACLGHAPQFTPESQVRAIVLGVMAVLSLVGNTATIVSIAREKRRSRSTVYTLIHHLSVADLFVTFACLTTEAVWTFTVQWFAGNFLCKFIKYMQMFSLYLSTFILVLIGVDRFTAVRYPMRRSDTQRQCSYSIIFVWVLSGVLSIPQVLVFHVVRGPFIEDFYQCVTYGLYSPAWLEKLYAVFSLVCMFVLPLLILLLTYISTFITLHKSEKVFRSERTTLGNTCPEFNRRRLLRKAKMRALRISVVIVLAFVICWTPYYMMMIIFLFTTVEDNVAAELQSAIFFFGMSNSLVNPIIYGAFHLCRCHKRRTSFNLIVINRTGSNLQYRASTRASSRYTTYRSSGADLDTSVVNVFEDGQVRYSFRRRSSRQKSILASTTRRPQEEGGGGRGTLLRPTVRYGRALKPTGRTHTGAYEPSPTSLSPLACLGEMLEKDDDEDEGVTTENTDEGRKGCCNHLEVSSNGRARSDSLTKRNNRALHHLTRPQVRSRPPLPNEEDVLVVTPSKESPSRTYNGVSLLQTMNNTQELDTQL
Procedure: Chinese hamster ovary (CHO-K1) cells containing stably expressed apoaequorin (Perkin Elmer, Boston, MA) and either Gα16 or Gq subunit (control cells) were cultured in Dulbecco's Modified Eagle Medium (DMEM) F-12 Nutrient Mixture GlutaMax (Gibco®) supplemented with 10% fetal bovine serum (Gibco®). Cells were maintained in vented T75 flasks at 37°C in 5% CO2.
Cells grown in a monolayer to approximately 60% confluency in T75 flasks were transfected with pcDNA3.1 constructs using FugeneHD (Promega) according to the manufacturer's recommendations. Briefly, transfection medium was prepared by combining 800 μl Opti-MEM® (Gibco) with 10 μg vector and 30 μl Fugene HD in a 2 ml polystyrene tube and incubated for 10 min at room temperature. The transfection reagent was added to 5 ml of fresh culture media and the cells incubated overnight at 37°C in 5% CO2. After 24 h, an additional 10 ml of culture media were added to the flasks and the cells returned to 37°C at 5% CO2 for a further overnight incubation.
On the day of the assay, cells were detached from the culture flask by incubating for 12 min in 5 ml 0.2% EDTA in PBS. The cells were washed with 10 ml DMEM clear DMEM/F-12 containing L-glutamine, 15 mM HEPES and moved to 50 ml centrifuge tubes. Cells were centrifuged for 5 min at 260 g and resuspended to a concentration of 5 × 10^6 cells ml^−1 in 0.2 μm filtered BSA medium (DMEM/F-12 containing L-glutamine, 15 mM HEPES + 0.1% BSA). Coelenterazine h (Invitrogen, Paisley, UK) was added to a concentration of 5 μM and the cells incubated for 4 h in the dark at room temperature whilst gently rocking. The cells were diluted 10-fold and incubated for a further 60 min before use in the assay. Synthetic peptides (GeneCust, Dudelange, Luxembourg) were reconstituted in 30% acetonitrile, dried in small aliquots by vacuum centrifugation and subsequently redissolved in BSA medium. Fifty microliter aliquots were then dispensed into quadruplicate wells of a white 96-well plate (OptiPlate, PerkinElmer). Cell suspensions were gently stirred and injected in 50 μl aliquots into each well using a Mithras LB 940 microplate reader (Berthold Technologies, Bad-Wildbad, Germany) and light emission (Ca^2+ response) recorded for 30 s. Cells were then lysed by injection of 0.3% Triton-X in BSA medium and light emission recorded for a further 10 s to measure total Ca^2+ response. BSA medium was used for blank measurements (6 replicate wells per plate) and mock transfection with empty vectors carried out for negative controls. Data was analyzed using MikroWin v5.18 (Mikrotek Laborsysteme GmbH) and SigmaPlot v.13 (Systat Software, Inc.). Receptor response was normalized against total Ca^2+ response.

[3] = Hemolymph triglyceride levels after peptide injection; format: in vivo, Carcinus maenas; details: lipid mobilization bioassay
[4] = as above; format: in vivo, Carcinus maenas; details: mean ± 1 SEM, n = 6, SEM
Procedure: Adipokinetic and glucose mobilizing activity of […] and ACP were performed by measurement of triglycerides in hemolymph ([…] et al., [2014]) and glucose (Chung and Webster, [1996]). Hemolymph samples (ca. 100 μl) were taken from crabs injected with each peptide at 0 and 90 min, and subsequently assayed.

semi-isolated heart = assay: Cardioactivity on semi-isolated heart preparations; parameters: species or system Carcinus maenas; details: superfusion, concentrations up to 10^−6 M, 20°C
Procedure: Cardioactivity of […], and ACP was performed on semi-isolated heart preparations of C. maenas. Crabs (ca. 65 mm carapace width) were ice-anesthetized and rapidly decerebrated before removing all limbs and the dorsal carapace to expose the heart and pericardial cavity. The heart was connected to a force transducer (MLT0210/A) via a micro fishing hook (size 28) and fine nylon (0.08 mm) monofilament. Connection to a PC with Chart 4.0 was via a Bridge Pod (ML301) and Powerlab 4/20 (AD Instruments Pty Ltd, Castle Hill, NSW, Australia). Transducer gain was set at maximum sensitivity (200 μV). Heart preparations were initially perfused with C. maenas physiological saline (Saver et al., [1999]) at room temperature (20°C). Once a stable heart output was achieved, hearts were firstly perfused with 1 ml saline, followed by increasing concentrations of peptides, applied in 1 ml. Crustacean cardioactive peptide (CCAP) (Bachem, Bubendorf, Switzerland), or proctolin (Sigma, Poole, UK) were positive controls (10^-11-10^-7 M). Test peptides ([…]) were perfused at 10^-8-10^-6 M for approximately 2 min at each concentration.

CC(C)C[C@H](NC(=O)[C@@H]1CCC(=O)N1)C(=O)N[C@@H](CC(N)=O)C(=O)N[C@@H](Cc1ccccc1)C(=O)N[C@@H](CO)C(=O)N1CCC[C@H]1C(=O)NCC(=O)N[C@@H](Cc1c[nH]c2ccccc12)C(N)=O [RPCH] (HELM PEPTIDE1{[Glp].L.N.F.S.P.G.W.[am]}$$$$V2.0)
pigment migration (concentration) in red and black epidermal chromatophores [1]: dose-dependent concentration of pigment in the red (but not the black) chromatophores
binding to CRZR at extremely high concentrations ([2]; 0.6–20 μM): some dose-dependent binding
EC50 ([2]; CHO-K1-Aeq cells (without Gα16) transiently expressing CRZR, luminescence response normalized to total Ca2+ response, dose response curves, means of n = 4): > 20 µM
effect on hemolymph diacylglycerol levels [3]: completely without effect
hemolymph triglyceride levels, 0 min ([4]; injection 100 pmol per crab): 0.14 ± 0.14 µg/µL
hemolymph triglyceride levels, 90 min ([4]; injection 100 pmol per crab, no significant change over 90 min): 0.86 ± 0.4 µg/µL
hemolymph triglyceride levels, 0 min ([4]; repeat experiment, injection 10 pmol): 0.49 ± 0.27 µg/µL
hemolymph triglyceride levels, 90 min ([4]; repeat experiment, injection 10 pmol, no significant change): 0.20 ± 0.28 µg/µL
hemolymph triglyceride levels, 0 min ([4]; repeat experiment, injection 100 pmol): 1.65 ± 0.59 µg/µL
hemolymph triglyceride levels, 90 min ([4]; repeat experiment, injection 100 pmol, no significant change): 0.78 ± 0.44 µg/µL
cardioacceleratory effect on semi-isolated hearts (semi-isolated heart): completely without cardioacceleratory effect
